One series relates to HT-22. In words: Cytotoxicity against mouse HT-22 cells assessed as cell viability at 1.25 to 5 uM incubated for 24 hrs by CCK8 assay. It is filed as toxicity, cell-based. The settings on record: ht-22, 24 h, dose 1.25-5 µM.
In series [1] the test system is N2a. Briefly: Induction of neuronal differentiation in mouse Neuro2a cells assessed as neurite formation at 5 uM incubated for 48 hrs by DAPI staining based fluorescence microscopic analysis. The series is classed as functional, cell-based.
Series [2] relates to N2a. Briefly: Cytotoxicity against mouse Neuro2a cells assessed as cell viability at 1.25 to 5 uM incubated for 24 hrs by CCK8 assay. The series is classed as toxicity, cell-based. The settings on record: dose 1.25-5 µM.
The test system of series [3] is N2a. Briefly: Induction of neuronal differentiation in mouse Neuro2a cells assessed as neurite elongation at 5 uM incubated for 48 hrs by DAPI staining based fluorescence microscopic analysis. The series is classed as functional, cell-based.

Molecules are shown by their SMILES.

Take `COC(=O)[C@@H](Cc1ccc(O)c(O)c1)OC(=O)/C=C/c1ccc(OC)c(O)c1`: in the series with HT-22, the Activity result is reported as “Non-toxic”.

Turning to `O=c1c(-c2ccc(O)cc2)coc2c([C@@H]3O[C@H](CO)[C@@H](O)[C@H](O)[C@H]3O)c(O)ccc12` [PUERARIN], the Activity entry in the series on HT-22 is given as “Non-toxic”.

For the compound `CC[C@H](CC[C@@H](C)[C@H]1CC[C@H]2[C@@H]3CC=C4C[C@@H](O[C@@H]5O[C@H](CO)[C@@H](O)[C@H](O)[C@H]5O)CC[C@]4(C)[C@H]3CC[C@]12C)C(C)C` [SITOGLUSIDE], the Activity entry with HT-22 is listed as “Non-toxic”.

Take `COc1cc(O)c(C(=O)CC(C)C)c2c1[C@@H]1C[C@H](C(C)C)C=C[C@]1(C)O2`: the Activity entry with HT-22 is reported as “Non-toxic”.

Regarding `O=C(O)[C@H]1O[C@@H](O[C@@H]2[C@@H](O)[C@@H](O)CO[C@H]2c2c(O)cc3oc(-c4ccc(O)c(O)c4)cc(=O)c3c2O)[C@H](O)[C@@H](O)[C@H]1O`, in the series on HT-22, the Activity entry is on record as “Non-toxic”.

On to `C=C[C@H]1[C@H](O[C@@H]2O[C@H](CO)[C@@H](O)[C@H](O)[C@H]2O)OC=C(C(=O)O)[C@H]1CC(=O)O`, for which, in the series with HT-22, the Activity entry is “Non-toxic”.

As for `O=C1c2c(O)cc(O)cc2O[C@H](c2cc(O)cc(O)c2)[C@H]1O`, in the series on HT-22, the Activity entry was “Non-toxic”.

Turning to `COc1cc2oc(-c3ccc(O)cc3)cc(=O)c2c(O)c1[C@@H]1O[C@H](CO)[C@@H](O)[C@H](O)[C@H]1O[C@@H]1O[C@H](CO)[C@@H](O)[C@H](O)[C@H]1O`, in the series on HT-22, the Activity entry is given as “Non-toxic”.

Turning to `C[C@@H]1O[C@@H](Oc2ccc(CNC(=S)NCc3ccc(O[C@@H]4O[C@@H](C)[C@H](O)[C@@H](O)[C@H]4O)cc3)cc2)[C@H](O)[C@H](O)[C@H]1O`, in the series with HT-22, the Activity entry was “Non-toxic”.

In the case of `COc1ccc([C@@H]2c3cc(OC)c(O)cc3C[C@@H](C)[C@H]2C)cc1O`, the Activity entry in the series on HT-22 is “Non-toxic”.

For the compound `OC[C@H]1O[C@@H](Oc2c(O)cc(O)cc2[C@@H]2[C@@H](c3ccc(O)cc3)[C@H](c3ccc(O)cc3)[C@H]2c2cc(O)cc(O)c2O[C@@H]2O[C@H](CO)[C@@H](O)[C@H](O)[C@H]2O)[C@H](O)[C@@H](O)[C@@H]1O`, in the series with HT-22, the Activity entry is “Non-toxic”.

As for `CC1=CC(=O)C[C@](C)(CO[C@@H]2O[C@H](CO)[C@@H](O)[C@H](O)[C@H]2O)[C@@]1(O)/C=C/C(C)=C/C(=O)O`, the Activity result in the series on HT-22 is “Non-toxic”.

Consider `O=c1c(O[C@@H]2O[C@H](CO)[C@@H](O)[C@H](O)[C@H]2O)c(-c2ccc(O)c(O)c2)oc2cc(O)cc(O)c12` [ISOQUERCETIN], for which the Activity entry in the series on N2a [1] was “Active; Significant Efficacy Observed”; in the series with N2a [2], “Toxic”; in the series on HT-22 it was “Non-toxic”; in the series on N2a [3], “Active; Significant Efficacy Observed”.

Consider `O[C@H]1CC[C@H]2CN3CCc4c([nH]c5ccccc45)[C@@H]3C[C@@H]2C1`, for which the Activity entry in the series with HT-22 is “Non-toxic”.

Take `C[C@@H]1O[C@@H](OC[C@H]2O[C@@H](Oc3c(-c4ccc(O)cc4)oc4cc(O)cc(O)c4c3=O)[C@H](O)[C@@H](O)[C@@H]2O)[C@H](O)[C@H](O)[C@H]1O` [NICOTIFLOROSIDE]: the Activity result in the series with HT-22 was “Non-toxic”.

Take `C[N+](C)(C)[C@H](Cc1c[nH]c2ccccc12)C(=O)[O-]` [HYPAPHORINE]: the Activity entry with HT-22 was “Non-toxic”.

With `O=C1c2c(O)cc(O[C@@H]3O[C@H](CO)[C@@H](O)[C@H](O)[C@H]3O)cc2O[C@]1(O)Cc1ccc(O)cc1`, the Activity result in the series on HT-22 is on record as “Non-toxic”.

For `C[C@@H]1CC[C@]2(C(=O)O)CC[C@]3(C)C(=CC[C@@H]4[C@@]5(C)CC[C@H](O[C@@H]6O[C@H](C(=O)O)[C@@H](O)[C@H](OS(=O)(=O)O)[C@H]6O)[C@@](C)(CO)[C@@H]5CC[C@]43C)[C@@H]2[C@]1(C)O`, the Activity entry in the series with HT-22 is on record as “Non-toxic”.

In the case of `O=C(O)[C@H]1O[C@@H](O[C@@H]2[C@@H](O)[C@H](O)[C@@H](CO)O[C@H]2c2c(O)cc3oc(-c4ccc(O)c(O)c4)cc(=O)c3c2O)[C@H](O)[C@@H](O)[C@H]1O`, the Activity result in the series with HT-22 is given as “Non-toxic”.

On to `COc1cc([C@H](O)[C@H](CO)Oc2c(OC)cc([C@H](O)[C@H](O)CO)cc2OC)ccc1O` (mixture of isomers), for which the Activity entry in the series with HT-22 is “Non-toxic”.

On to `C[C@](O)(CC(=O)O)CC(=O)OC[C@H]1O[C@@H](OCc2ccccc2)[C@H](O)[C@@H](O)[C@@H]1O`, for which the Activity entry with HT-22 is “Non-toxic”.

In the case of `C=C(c1[nH]c2ccccc2c1CN1C/C(=C/C)[C@@H]2CC(=O)c3[nH]c4ccccc4c3C[C@H]1C2C(=O)OC)[C@H]1CCN(C)C/C1=C\C` (stereo partly specified), the Activity result with N2a [1] was “Active; Significant Efficacy Observed”; with N2a [2], “Toxic”; in the series on HT-22 it was “Non-toxic”; in the series with N2a [3], “Active; Significant Efficacy Observed”.

As for `COc1cc([C@@H]2Oc3c(OC)cc(CCCO[C@@H]4O[C@H](CO)[C@@H](O)[C@H](O)[C@H]4O)cc3[C@H]2CO)ccc1O`, the Activity result with HT-22 is on record as “Non-toxic”.

`O=c1cc(-c2ccccc2)oc2cc(O[C@@H]3O[C@H](CO[C@@H]4O[C@H](CO)[C@@H](O)[C@H](O)[C@H]4O)[C@@H](O)[C@H](O)[C@H]3O)c(O)c(O)c12`: the Activity result with HT-22 is on record as “Non-toxic”.

As to `O=C(O)C1=CC[C@@H]2C(C(=O)O)=CO[C@@H](O[C@@H]3O[C@H](CO)[C@@H](O)[C@H](O)[C@H]3O)[C@H]12` [IXOSIDE], the Activity result in the series on HT-22 is “Non-toxic”.

Source of the values: ChEMBL document CHEMBL6103668, “In-Silico Screening-Based Discovery of New Natural eEF2K Inhibitors with Neuritogenic Activity” (ACS Med Chem Lett, 2025).
